Assay results as given in PMC7794297.

Legend:
[1] = target: T1, glucose oxidase (GOx) (Aspergillus niger, UniProt P13006); experiment: Glucose oxidase-directed DCL of building blocks 1-4; set-up: purchased Sigma Aldrich; unit not given here; settings: blank vs GOx template DCL; GOx 57 μM, Secox 5% mol, 24 h
Protocol: The equilibration of the DCL was completed after 24 h (Fig. 9) and the oligomers were identified by HPLC-MS (Supplementary Figs. 4–20). The precise composition of the DCL (with and without GOx), was assessed by measuring the relative peak area (RPA). The normalized change of RPA was used to quantify the protein influence in the final DCL showing the amplification of the dimer of compound 4, that is (4)2 (Fig. 9b). Control experiments were set up to verify that the amplification of the dimer was not due to unspecific binding. Firstly the GOx was replaced by the bovine serum albumin (BSA). A stability study of BSA under the DCL conditions was performed using a fluorescence technique confirming the BSA stability in the DCL experiment (Supplementary Fig. 48)[50].
The DCL was stabilized for 24 h at 6 °C. Then, GOx was removed by ultracentrifugation through an Amicon ultra-filter (100 KDa). HPLC analysis was performed.

[2] = target: bovine serum albumin (BSA) (Bos taurus, UniProt P02769); experiment: BSA-directed DCL of building blocks 1-4; set-up: purchased Roche; key to NC of RPA: normalized change of relative peak area (RPA) vs blank DCL
[3] = Spermine-templated DCL of building blocks 1-4; settings: spermine DCL of 1-4
In short: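 Dynamic combinatorial libraries of building blocks 1–4 were equilibrated without stirring at pH 7.8 and 6 °C, with and without spermine and with or without Secox, for 24–96 h until stable. Composition was analysed by HPLC-MS, and template influence was expressed as normalized change in relative peak area.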

[4] = target: T1, glucose oxidase (GOx); experiment: GOx activity assay, glucose oxidase-horseradish peroxidase coupled system with o-dianisidine; assay type: biochemical; set-up: purchased Sigma Aldrich; settings: for 1/Vo: Lineweaver-Burk;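 on GOx activity: GOx activity followed by o-dianisidine absorbance at 500 nm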
[5] = NADPH-templated DCL of building blocks 1-4;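 further: values are means ± SD of DCC experiments run in triplicate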

T1 sequence (P13006 17-605): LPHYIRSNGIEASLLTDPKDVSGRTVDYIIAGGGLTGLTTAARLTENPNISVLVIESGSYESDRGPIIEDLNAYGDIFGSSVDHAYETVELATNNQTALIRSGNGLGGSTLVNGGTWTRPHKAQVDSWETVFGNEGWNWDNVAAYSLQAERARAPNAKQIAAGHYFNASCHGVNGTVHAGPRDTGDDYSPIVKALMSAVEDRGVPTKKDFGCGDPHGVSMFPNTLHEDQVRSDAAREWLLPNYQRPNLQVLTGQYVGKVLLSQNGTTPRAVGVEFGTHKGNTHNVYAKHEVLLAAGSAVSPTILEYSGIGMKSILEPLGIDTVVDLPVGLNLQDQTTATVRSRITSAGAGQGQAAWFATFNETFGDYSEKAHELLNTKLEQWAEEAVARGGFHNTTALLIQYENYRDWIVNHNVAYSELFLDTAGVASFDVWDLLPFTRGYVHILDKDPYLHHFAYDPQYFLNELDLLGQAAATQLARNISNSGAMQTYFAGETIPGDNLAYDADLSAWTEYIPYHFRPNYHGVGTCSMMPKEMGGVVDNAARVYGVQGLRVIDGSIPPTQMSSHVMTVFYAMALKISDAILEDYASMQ
Sequence of bovine serum albumin (BSA) (P02769 25-607): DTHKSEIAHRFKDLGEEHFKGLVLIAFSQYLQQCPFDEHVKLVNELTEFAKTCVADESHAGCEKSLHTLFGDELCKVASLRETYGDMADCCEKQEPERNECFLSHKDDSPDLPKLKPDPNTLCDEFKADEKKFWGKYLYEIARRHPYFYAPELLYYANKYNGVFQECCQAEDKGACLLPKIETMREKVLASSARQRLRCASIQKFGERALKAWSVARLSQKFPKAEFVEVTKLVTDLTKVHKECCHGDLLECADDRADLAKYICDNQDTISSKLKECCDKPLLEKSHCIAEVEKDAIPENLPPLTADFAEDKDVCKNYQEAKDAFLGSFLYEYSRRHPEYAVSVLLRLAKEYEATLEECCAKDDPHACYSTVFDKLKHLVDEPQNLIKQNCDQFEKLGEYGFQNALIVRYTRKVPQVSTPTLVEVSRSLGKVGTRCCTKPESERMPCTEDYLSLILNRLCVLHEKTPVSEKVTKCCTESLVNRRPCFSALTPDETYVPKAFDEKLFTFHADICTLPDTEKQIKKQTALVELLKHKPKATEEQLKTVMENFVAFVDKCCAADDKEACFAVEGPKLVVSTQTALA

c1ccc(SSc2ccccc2)cc1 [(4)2]
NC of RPA [1]: 39,73
amplification in the BSA-templated DCL ([2]; GOx replaced by BSA): did not amplify
NC of RPA ([2]; blank vs BSA-DCL, BSA 57 µM, Secox 5% mol, 24 h): 0,02
Normalized Change of RPA (NC) ([3]; 0% Secox): 0,59
Normalized Change of RPA (NC) ([3]; 5% Secox): 0,53
GOx Activity ([4]; IC50 data, inhibitor 1.4 nM, glucose 10 mM): 0.07285 min⁻¹
GOx Activity ([4]; IC50 data, inhibitor 3.5 nM, glucose 10 mM): 0.0762 min⁻¹
GOx Activity ([4]; IC50 data, inhibitor 7.0 nM, glucose 10 mM): 0.0665 min⁻¹
GOx Activity ([4]; IC50 data, inhibitor 14.0 nM, glucose 10 mM): 0.0785 min⁻¹
GOx Activity ([4]; IC50 data, inhibitor 70.0 nM, glucose 10 mM): 0.0871 min⁻¹
GOx Activity ([4]; IC50 data, inhibitor 140.0 nM, glucose 10 mM): 0.08235 min⁻¹
GOx Activity ([4]; IC50 data, inhibitor 700.0 nM, glucose 10 mM): 0.0656 min⁻¹
GOx Activity ([4]; IC50 data, inhibitor 1400.0 nM, glucose 10 mM): 0.0557 min⁻¹
GOx Activity ([4]; IC50 data, inhibitor 7000.0 nM, glucose 10 mM): 0.0417 min⁻¹
GOx Activity ([4]; IC50 data, inhibitor 140000.0 nM, glucose 10 mM): 0.0376 min⁻¹
GOx Activity ([4]; Ki data, inhibitor 7,0·10^-7 M, [Glucose] 0.0002 M): 0.0019 min⁻¹
GOx Activity ([4]; Ki data, inhibitor 7,0·10^-7 M, [Glucose] 0.0007 M): 0.0067 min⁻¹
GOx Activity ([4]; Ki data, inhibitor 7,0·10^-7 M, [Glucose] 0.0014 M): 0.01145 min⁻¹
GOx Activity ([4]; Ki data, inhibitor 7,0·10^-7 M, [Glucose] 0.0028 M): 0.02218 min⁻¹
GOx Activity ([4]; Ki data, inhibitor 7,0·10^-7 M, [Glucose] 0.004 M): 0.02548 min⁻¹
GOx Activity ([4]; Ki data, inhibitor 7·10^-8 M, [Glucose] 0.0002 M): 0.0021 min⁻¹
GOx Activity ([4]; Ki data, inhibitor 7·10^-8 M, [Glucose] 0.0007 M): 0.01063 min⁻¹
GOx Activity ([4]; Ki data, inhibitor 7·10^-8 M, [Glucose] 0.0014 M): 0.01978 min⁻¹
GOx Activity ([4]; Ki data, inhibitor 7·10^-8 M, [Glucose] 0.0028 M): 0.03193 min⁻¹
GOx Activity ([4]; Ki data, inhibitor 7·10^-8 M, [Glucose] 0.004 M): 0.0385 min⁻¹
GOx Activity ([4]; Ki data, inhibitor 14·10^-7 M, [Glucose] 0.0002 M): 0.00175 min⁻¹
GOx Activity ([4]; Ki data, inhibitor 14·10^-7 M, [Glucose] 0.0007 M): 0.006225 min⁻¹
GOx Activity ([4]; Ki data, inhibitor 14·10^-7 M, [Glucose] 0.0014 M): 0.013 min⁻¹
GOx Activity ([4]; Ki data, inhibitor 14·10^-7 M, [Glucose] 0.0028 M): 0.01805 min⁻¹
GOx Activity ([4]; Ki data, inhibitor 14·10^-7 M, [Glucose] 0.004 M): 0.02392 min⁻¹
GOx Activity ([4]; Ki data, inhibitor 14·10^-8 M, [Glucose] 0.0002 M): 0.001875 min⁻¹
GOx Activity ([4]; Ki data, inhibitor 14·10^-8 M, [Glucose] 0.0007 M): 0.008475 min⁻¹
GOx Activity ([4]; Ki data, inhibitor 14·10^-8 M, [Glucose] 0.0014 M): 0.0135 min⁻¹
GOx Activity ([4]; Ki data, inhibitor 14·10^-8 M, [Glucose] 0.0028 M): 0.0304 min⁻¹
GOx Activity ([4]; Ki data, inhibitor 14·10^-8 M, [Glucose] 0.004 M): 0.0395 min⁻¹
1/Vo ([4]; inhibitor 0,7 µM, 1/[glucose] 250 M-1): 41.8673 min
1/Vo ([4]; inhibitor 0,7 µM, 1/[glucose] 357 M-1): 59.4498 min
1/Vo ([4]; inhibitor 0,7 µM, 1/[glucose] 714 M-1): 110.461 min
1/Vo ([4]; inhibitor 0,7 µM, 1/[glucose] 1430 M-1): 185.984 min
1/Vo ([4]; inhibitor 0,7 µM, 1/[glucose] 5000 M-1): 603.288 min
1/Vo ([4]; inhibitor 1,4 µM, 1/[glucose] 250 M-1): 56.7644 min
1/Vo ([4]; inhibitor 1,4 µM, 1/[glucose] 357 M-1): 75.4986 min
1/Vo ([4]; inhibitor 1,4 µM, 1/[glucose] 714 M-1): 81.9727 min
1/Vo ([4]; inhibitor 1,4 µM, 1/[glucose] 1430 M-1): 178.284 min
1/Vo ([4]; inhibitor 1,4 µM, 1/[glucose] 5000 M-1): 687.292 min
Inhibitor Type ([4]; Lineweaver–Burk plots): non-competitive
IC50 ([4]; [Glucose] 10 mM, 37 °C, sodium acetate buffer pH 5.1): 1800 ± 100 nM
Ki ([4]; non-competitive inhibition model, 37 °C, sodium acetate buffer pH 5.1): 1700 ± 200 nM
Normalized Change of RPA (NC) ([5]; 0% Secox): -1,00
Normalized Change of RPA (NC) ([5]; 5% Secox): -1,00
